Source: patent EP3723746B1, “PHENOXY ACIDS FOR THE TREATMENT OF NEUROMUSCULAR DISORDERS” (NMD Pharma A/S, priority 2017, dated 2019)

How the values were obtained:
soleus muscles = assay: Measurement of force in an in vitro model: recovery of contractile force of isolated rat soleus nerve-muscle preparation after tubocurarine
Protocol: Recovery of force is quantified as the percentage of the force prior to tubocurarine that is recovered by the compound.
The current invention relates to compounds that inhibit CIC-1 ion channels and increase muscle excitability and thereby improve muscle function in clinical conditions where muscle activation is failing. Such conditions result in loss of contractile function of skeletal muscle, weakness and excessive fatigue. In this series of experiments the compounds were tested for their ability to restore contractile function of isolated rat muscle when the neuromuscular transmission had been compromised akin to neuromuscular disorders.
Experimentally, soleus muscles from 4-5 week old rats were isolated with the motor nerve remaining attached. The nerve-muscle preparations were mounted in experimental setups that enabled electrical stimulation of the motor nerve. Stimulation of the motor nerve led to activation of the muscle fibres and ensuing force production that was recorded.
After mounting the nerve-muscle preparation in the experimental setup, the contractile function of the muscle was initially assessed under the control conditions (Figure 2A). […] The experimental condition mimics the failing neuromuscular transmission in a range of neuromuscular disorders. After addition of tubocurarine the contractile force declined over the next 90 mins to 10-50 % of the control force. 50 µM of the test compound was then added and the contractile force recovered despite the continued presence of tubocurarine. To quantify the ability of the compound to restore force the percentage of the initial force that was restored was determined after 40 mins of compound exposure (Figure 2B) and the point increase is reported in Table 3. Table 3: Percentage increase of initial force that was restored

human CIC-1 channels = biological target: T1, human CIC-1 channels (Homo sapiens, UniProt P35523); assay: Automated patch-clamp on the human isoform of CIC-1 expressed in CHO cells; format: cell-based; details: compound added intracellularly vs control cell patches; positive shift reflects CIC-1 inhibition
T1 construct: host or cells: CHO cells constitutively expressing human ClC-1
Protocol: The investigatory goal of these experiments was to evaluate how compounds affect the open probability and current amplitude of human CIC-1 channels expressed in CHO cells. Experiments were performed using an automated patch clamp system that allowed high throughput testing of whole cell patches together with both intracellular and extracellular addition of compound.
Automated whole cell patch clamp experiments were performed with the Qpatch 16 system (Sophion Bioscience, Ballerup, Denmark) at room temperature. Data acquisition and analysis were performed in the Qassay software (ver. 5.6, Odense).
To evoke CIC-1 currents in whole cell patches, the membrane potential was initially stepped from a holding potential of -30 mV to +60 mV for 100 ms and then to various test voltages (sweeps) ranging from +120 mV to -140 mV in steps of 20 mV for 300 ms. To obtain tail currents, the membrane potential was stepped to -100 mV after each test voltage for 300 ms and then relaxed to -30 mV for 2 sec between sweeps (Figure 3). I/V relationships for whole cell instant and steady state current amplitudes were obtained by plotting average current densities at the beginning and at the end of the 300 ms step against the membrane potential (Figure 4).
In order to determine the relative overall open probability (P0), the instantaneous tail currents were normalized to the maximal tail current obtained following the most positive voltage step and plotted against the test voltage. Plots of normalized tail currents from each whole cell patch were then fitted to a Boltzmann function allowing determination of half activation voltages (V1/2, Figure 5).
For automated patch clamp experiments extracellular solutions contained: 2 mM CaCl2, 1 mM MgCl2, 10 mM HEPES, 4 mM KCI, 145 mM NaCl, 10 mM Glucose, pH adjusted to 7.4 with NaOH (2 M). Osmolality adjusted to ~320 using sucrose.
Intracellular solutions contained: 80 mM CsF, 60 mM CsCI, 5/1 mM KOH/EGTA, 10 mM HEPES, 10 mM NaCl, pH adjusted to 7.2 with NaOH (2 M). Osmolality adjusted to ~320 mOsm using sucrose.
Cells used in patch clamp experiments were Chinese hamster ovary cells (CHO) constitutively expressing human CIC-1 channels. The amino acid sequence encoded by the cDNA used to create this cell line was identical to the translated sequence for GenBank accession number NM_000083.2. Cells were produced by Charles River (Catalogue CT6175, Cleveland OH, USA) in a cryopreserved format. Experiments were performed on the cells directly after thawing (3 × 10^6 cells used in each experiment).
To evaluate the compound effect on CIC-1, when applied directly to the intracellular side of the cell membrane, the half activation voltage, V1/2, was determined from whole cell patches with compound added to the intracellular solution and then compared to V1/2 determined from control cell patches with only vehicle added to the intracellular solution. Additionally, the effect of extracellular added compound was evaluated by determine V1/2 and steady state current amplitudes before and after exchanging the extracellular solution to contain compound.
The difference in half activation voltage of CIC-1 channels, ΔV1/2, was determined as the difference between the cell patches treated intracellularly with compound and control cells patches and is reported in Table 4 below. A positive shift in ΔV1/2 is reflecting CIC-1 channel inhibition by the tested compound. P-values of <0.05 is considered significant. […]

T1 sequence (P35523 whole entry, canonical isoform): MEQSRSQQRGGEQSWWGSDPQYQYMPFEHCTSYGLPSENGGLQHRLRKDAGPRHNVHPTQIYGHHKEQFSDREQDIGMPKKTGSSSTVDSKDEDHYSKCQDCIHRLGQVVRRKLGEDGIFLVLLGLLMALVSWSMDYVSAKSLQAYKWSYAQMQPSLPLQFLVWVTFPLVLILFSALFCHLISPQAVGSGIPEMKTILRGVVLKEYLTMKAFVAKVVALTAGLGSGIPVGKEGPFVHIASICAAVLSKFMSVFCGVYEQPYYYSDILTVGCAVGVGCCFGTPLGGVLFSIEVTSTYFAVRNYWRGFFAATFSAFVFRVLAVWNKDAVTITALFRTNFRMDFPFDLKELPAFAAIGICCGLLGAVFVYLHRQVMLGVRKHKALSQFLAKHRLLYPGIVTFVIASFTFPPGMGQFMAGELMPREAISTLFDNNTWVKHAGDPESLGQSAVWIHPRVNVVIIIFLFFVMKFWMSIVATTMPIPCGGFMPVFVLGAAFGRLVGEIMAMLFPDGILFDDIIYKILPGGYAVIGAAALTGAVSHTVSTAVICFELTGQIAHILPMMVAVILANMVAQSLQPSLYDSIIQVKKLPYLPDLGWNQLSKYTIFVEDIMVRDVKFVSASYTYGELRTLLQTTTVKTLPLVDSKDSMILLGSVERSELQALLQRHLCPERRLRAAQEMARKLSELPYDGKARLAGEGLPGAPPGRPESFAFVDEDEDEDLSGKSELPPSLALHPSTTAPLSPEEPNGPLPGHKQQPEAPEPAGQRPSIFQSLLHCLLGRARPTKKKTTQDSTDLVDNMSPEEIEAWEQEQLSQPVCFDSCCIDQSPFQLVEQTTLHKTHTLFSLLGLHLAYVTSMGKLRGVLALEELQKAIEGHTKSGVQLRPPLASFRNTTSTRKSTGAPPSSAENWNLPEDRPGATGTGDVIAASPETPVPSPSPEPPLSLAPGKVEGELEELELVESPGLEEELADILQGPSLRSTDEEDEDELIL

- ΔV1/2 (human CIC-1 channels): 7.7 mV
SMILES: C#Cc1cc(Br)ccc1O[C@@H](C)C(=O)O [Compound A-19, (2S)-2-(4-bromo-2-ethynylphenoxy)propanoic acid]
- average force (AUC) relative to initial force (soleus muscles; Figure 2: 50 µM compound after 90 min incubation in tubocurarine, 3 muscles): recovered
- activation at 50 µM (soleus muscles; Rattus norvegicus, 40 min, 50 µM test compound, after 90 mins 115 nM tubocurarine, percentage of the initial force restored after 40 mins of compound exposure, read-out: Point increase): 31%
